Source: PMC11939361, “diAcCA, a Pro-Drug for Carnosic Acid That Activates the Nrf2 Transcriptional Pathway, Shows Efficacy in the 5xFAD Transgenic Mouse Model of Alzheimer’s Disease” (Antioxidants, 2025)
Entries after “also recorded” stand apart in the source; their conditions may differ. Like-named read-outs stand apart in the source and are kept apart here.

Key:
WT 6XC57BL6 mice = assay: Non-GLP toxicology analysis of esophagus and stomach (H&E, inflammation); assay type: in vivo, mouse; conditions: for overall safety / toxicology: in vivo
Experimental: Starting at 5 months of age, WT 6XC57BL6 mice were given either the highest dose of diAcCA used in this study (50 mg/kg) or olive oil vehicle three times a week for three months by oral gavage/PO. Following the treatment, the esophagus and stomach were isolated, and 5 μm-thick coronal and sagittal sections were cut from the esophagus. The stomach was opened along the greater curvature, cleaned with PBS, and pinned flat. Two 5 μm-thick sagittal sections were collected, one extending from the cardiac region to the duodenum, and the other from the forestomach to the fundic area. All sections were made using a rotary microtome (HM325-#387821, Fisher Scientific) and mounted on SuperfrostPlus slides (#1255015, Fisher brand). The sections were stained by hematoxylin and eosin stain (H&E) [Abcam H&E kit, ab245880], mounted with permount, dried overnight at room temperature, and then imaged. Acquired images were analyzed in a masked fashion for inflammation by a board-certified pathologist.
Extensive toxicity and safety data are already published on CA [47, 48]. […] Accordingly, in light of our PK findings, we selected a dose of 50 mg/kg to assess safety of the drug after oral administration to WT mice. We performed a non-GLP toxicology analysis of vehicle (olive oil) or drug administered PO three times a week for 3 months starting at 5 months of age. Following this period, sections from the stomach and esophagus were stained with H&E and examined blindly by a board-certified toxicologic pathologist.
Supplementary Figure S2. Pharmacokinetic and safety studies for diAcCA. […]
(D, E) Non-GLP toxicology analysis on WT mice after treatment with vehicle ( olive oil) or the highest concentration of diAcCA (50 mg/ kg) used in these experiments.
Representative esophagus and stomach lining sections (D) stained by hematoxylin & eosin (H&E) from two groups of mice. Scale: 500 μm. Bar graph (E) quantifying inflammation in esophagus (periesophagitis) and stomach (neutrophilic gastritis) by a standard tox inflammatory score ranging from 0 to 4 (0: inflammation within normal limits, 1: minimal […]
baseline inflammation in WT mice (n =3 animals in each group).
(1 picture or pasted object on this page, not shown here)

5xFAD mice = assay: Quantitative confocal immunohistochemistry (Q-IHC) of hippocampal sections; assay type: in vivo, mouse
Experimental: The 5xFAD mice bear five mutations linked to AD. Three of these are in the App695 gene [Swedish (APP K670N/M671L), Florida (I716V), London (V717I)], and two are in the PSEN1 gene [L286V, M146L]. Male 5xFAD breeder mice were obtained from Jackson Laboratories (#034848-JAX, Bar Harbor, ME, USA) and crossed with female 6XC57BL6 mice. Genotyping was performed by PCR. First-generation pups were used for all experiments with 5xFAD transgenic (Tg) and WT littermate control mice.
diAcCA or control vehicle was administered three times per week for 3 months to 5xFAD Tg or WT littermate control mice starting at approximately 5 months of age by oral gavage (designated here as “per os” or PO). Three different doses were used (10 mg/kg, 20 mg/kg, or 50 mg/kg). diAcCA was dissolved in olive oil vehicle, a non-polar organic solvent. For vehicle control, we administered olive oil alone. A total of 45 animals were used in this study, with 7–8 animals in each group.
For euthanasia, animals were deeply anesthetized with isoflurane and then transcardially perfused with ice-cold phosphate-buffered saline (PBS) followed by 4% paraformaldehyde (PFA) for fixation. Brains were isolated and post-fixed in 4% PFA overnight at 4 °C. The next day, brains were washed and transferred to 30% sucrose at 4 °C until sectioning. Every brain then received a masked code for the following steps, and the code was only broken after all quantifications were completed.
Sagittal sections (40 μm-thick) were prepared using a vibratome (Leica VT1200S) and incubated in blocking buffer (5% goat serum, 0.5% Triton X-100 in PBS) for 1 h at room temperature to prevent non-specific binding. Following blocking, floating sections were incubated in their respective primary antibody solutions on a shaker overnight at 4 °C. Antibodies against the following proteins were used in this study: NeuN (D4G4O, 1:500, rabbit mAb #24307, Cell Signaling Technology, Danvers, MA, USA), Synapsin I (D12G5, 1:500, rabbit mAb #5297, Cell Signaling Technology), phosphor (Ser202, Thr205)-tau (AT8, 1:500, mAb #MN1020, ThermoFisher Scientific, Waltham, MA, USA), glial fibrillary acidic protein (GFAP) (GA5, 1:500, MAB360, Millipore Sigma, Carlsbad, CA, USA), ionized calcium binding adaptor molecule 1 (Iba1) (EPR16589, 1:1000, #ab178847, Abcam, Waltham, MA, USA), human nuclear antigen (HuNu) (1:500, mouse mAb #191181, Abcam), and caspase-1 (1:50, rabbit pAb #AB1871, Sigma Aldrich, St. Louis, MO, USA). For Aβ staining, floating sections were pre-treated with 90% formic acid (28905, Thermo Scientific) for 1 min at room temperature. They were then rinsed and blocked, following which they were incubated in anti-β-amyloid 17–24 antibody (4G8, 1:1000, #800708, BioLegend, San Diego, CA, USA) on a shaker overnight at 4 °C.
The next day, immunostaining was performed on brain sections after 3 washes in PBS and incubation in the appropriate secondary antibody solution on a shaker for 2 h at room temperature. Secondary antibodies included Alexa 488 (A11008, 1:500, goat anti-rabbit, Life Technologies, Carlsbad, CA, USA) and Alexa 555 (A21424, 1:500, goat anti-mouse, Life Technologies). The sections were again washed with PBS 3 times, mounted on Superfrost plus slides (12-550-15, Fisher Scientific, Waltham, MA, USA) and dried at room temperature. The slides were then coated with Vectashield plus antifade mounting medium, stained with nuclear dye DAPI (H-2000, Vector Laboratories, San Francisco, CA, USA), and a coverslip (12541057, Fisher Scientific) was applied. For each brain, 3–6 images were acquired for each individual marker using a confocal fluorescence microscope (Nikon Eclipse Ti2) (Figure 1, Figure 2 and Figure 3, Supplementary Figure S1). Post image processing, quantification was performed using Fiji ImageJ (1.54f). For the Iba1-stained slides, a mask was made of cells co-labeled for HuNu and Iba1, and then caspase 1 staining was measured. […]

[1] = Brain levels of CA from prior plasma/brain PK data; assay type: in vivo; conditions: for Cmax: mouse, read-out: predicted Cmax in the brain
Experimental: We also determined the stability and bioavailability of diAcCA compared to CA. For this purpose, individual mice were administered CA or diAcCA IV or via oral gavage/PO. For CA, the doses were 3 mg/kg for the IV route and 10 mg/kg for oral gavage/PO, and for diAcCA 10 mg/kg by oral gavage/PO. Plasma concentrations were evaluated at ten different time points over the next 72 h (raw data shown in Tables S1 and S2, Supplementary Materials).
The extensive existing PK data obtained on plasma and brain samples for CA, correlated with prior in vivo efficacy data for CA [26, 33, 49], allowed us to calculate the therapeutic dose range that we wanted to test here for diAcCA.

[2] = 5xFAD hippocampus, 10, 20 or 50 mg/kg PO three times a week for 3 months vs vehicle

CC(=O)Oc1c(C(C)C)cc2c(c1OC(C)=O)[C@@]1(C(=O)O)CCCC(C)(C)[C@@H]1CC2 [diAcCA]
baseline inflammation in the esophagus (periesophagitis), H&E (WT 6XC57BL6 mice; WT mice, 50 mg/kg PO three times a week for 3 months vs olive oil vehicle, n = 3, 50 mg/kg): appeared to improve; also recorded: improved baseline inflammation in the esophagus
overall safety / toxicology (WT 6XC57BL6 mice; mouse): as safe or safer than CA
overall safety / toxicology (WT 6XC57BL6 mice; mouse, listed as diAcCa): no toxicological issues
toxicity to the digestive system after oral administration (WT 6XC57BL6 mice; mouse): no toxicity was noted
GFAP MFI, astrocytes (5xFAD mice; [2]): significantly improved; also recorded: reduced GFAP MFI
Iba1 integrated density (ID), microglial density (5xFAD mice; [2]): significantly improved; also recorded: improved IBA ID
NeuN mean fluorescence intensity (MFI), neuronal density (5xFAD mice; [2]): significantly improved; also recorded: restored NeuN MFI (representing neuronal number) to near normal levels
Synapsin I MFI, presynaptic density (5xFAD mice; [2]): significantly improved; also recorded: restored Synapsin I MFI (located in the presynaptic terminal of the synapse) to near normal levels
percent area of Aβ accumulation (4G8) (5xFAD mice; [2]): significantly reduced the area of Aβ accumulation; also recorded: significantly reduced the area of Aβ aggregates
percentage area of pTau aggregates (AT8) (5xFAD mice; 5xFAD hippocampus, each treatment dose (10, 20, 50 mg/kg PO, 3 months) vs vehicle): remarkable decrease in the area of pTau aggregates; also recorded: dramatically reduced the area of pTau aggregates
time to reach neurotherapeutic levels in the brain ([1]; after conversion of diAcCA to CA): less than 1 h
Cmax ([1]; diAcCA 10 mg/kg PO): ~600 nM
Cmax ([1]; diAcCA 20 mg/kg PO): ~1200 nM
Cmax ([1]; diAcCA 50 mg/kg PO): ~3000 nM
